Reference: US20260123631A1, “NATURAL PORPHIN SALT AND USE THEREOF AS PLANT GROWTH REGULATOR AND PLANT IMMUNITY INDUCER” (NANJING BOSTEC BIOLOGICAL ENGINEERING CO., LTD, priority 2022, published 2026)

Experiments:
[1] = Water solubility of the prepared salts; assay type: physicochemical
[2] = Dilution and pH determination for sample solutions; assay type: physicochemical
Protocol: Method: 0.2500 g of a sample was accurately weighed and added to a 25 mL volumetric flask, dissolved with purified water, and diluted to a specified scale to prepare a 1.00% (10,000.0 ppm) initial solution. The initial solution was diluted with purified water in different ratios to prepare a series of solutions with a concentration of 1,000.0 ppm to 0.1 ppm. A pH value of each sample was determined three times.

[3] = system: wheat; experiment: Germination of wheat and growth of seedlings; assay type: in vivo, wheat (Huaimai 35); settings: for Root length / Root number / Root weight / Seedling height / Seedling weight: wheat seedlings
Protocol: Method: 3 replicates were set for each treatment. 50 full seeds with a consistent size were selected each time for each sample, disinfected with sodium hypochlorite for 5 min, rinsed with clear water, and placed in a plastic box filled with 100 g of a sand. 25 mL of a prepared sample solution was poured into the plastic box, and the seeds were arranged regularly. The plastic box was covered with a lid, and then incubated in a 25° C. incubator. The germination was determined when a length of a sprout of a wheat seed exceeded a half of a diameter (long axis) of the wheat seed (determination criterion). According to the growth of wheat, the germ exposure of seeds and the number of germinated seeds were recorded every day. On day 6, 10 wheat seedlings were randomly selected, and a root length, a plant height, and a root number were determined. On day 7, a root weight and an aboveground part weight were determined. All index data was produced based on 3 replicates.

[4] = molecular target: chlorophyllase; experiment: In vitro chlorophyllase-inhibiting activity test; assay type: biochemical, mung bean; settings: substrate chlorophyll 120 ppm, sample 0.3 ppm to 30.0 ppm
Protocol: A chlorophyllase inhibition rate of a salt sample solution at each concentration was determined, and an IC50 value for a chlorophyllase inhibition activity of a salt sample was calculated.

[5] = system: sheath blight in rice; experiment: Field control of sheath blight in rice; assay type: in vivo, rice (Nanjing 9108); settings: 3.0 mg/mu sprayed 3 times (0.100, 0.067, 0.067 ppm)
Protocol: A test sample was dissolved, diluted, thoroughly stirred, and then applied, with an application area of 3 mu for each treatment. Before harvesting, five-point sampling (20 m^2 per sampling point) was conducted for each treatment to determine the details of sheath blight in rice.

[6] = system: leaf blast in rice; experiment: Field control of leaf blast in rice; assay type: in vivo, rice (Nanjing 9108); settings: 3 mg/mu sprayed 3 times (0.1, 0.067, 0.067 ppm)
Protocol: (§1) The experiment was conducted according to experimental specifications in the field efficacy standard of GB/T17980.19-2000. In the experiment, the following two treatments were set: a first treatment: sodium iron chlorin was applied, and a second treatment: a blank control (water) was applied. A test sample was fully dissolved and diluted, and then applied. Based on the characteristics of disease and pest control, an agent was applied once at each of a late tillering stage (Jul. 22, 2021), a jointing-booting stage (Aug. 16, 2021), and a full heading stage (Aug. 30, 2021). […] Water amounts required per mu for the three times were 30 L, 45 L, and 45 L (sample concentrations: 0.1 ppm, 0.067 ppm, and 0.067 ppm), respectively. An area for each treatment was 3 mu. According to a five-point sampling method, 5 sampling points (20 m^2 per sampling point) were set for each treatment. The occurrence of leaf blast in rice was investigated in the field before harvesting.

[7] = system: rice; experiment: Rice yield in the leaf blast field experiment; assay type: in vivo, rice (Nanjing 9108); settings: 3 mg/mu sprayed 3 times
Protocol: as §1
The harvesting was conducted on Nov. 8, 2021. On the eve of harvesting, the yield composition and structure were investigated. Then a yield per mu was measured.

[8] = system: Phytophthora capsici; experiment: Pot experiment: resistance of pepper to phytophthora blight; assay type: in vivo; settings: 2.0 ppm sprayed on pepper seedlings (Sujiao No. 5), inoculated 3 d later
Protocol: Preparation of Phytophthora capsici zoospores: Fungal discs were collected at an edge of a newly-activated Phytophthora capsici plate. 6 mm fungal discs were picked with a needle and transferred to an empty Petri dish with a diameter of 9 cm, with fungi facing up and 10 fungal discs for each plate. 15 mL of sterilized water was added to the Petri dish, and the Petri dish was placed in a clean bench under light. The water was changed once every 30 min for 3 times in total. The remaining wastewater was removed by a pipette, and then 10 mL of the V8 liquid medium was added. The Petri dish was incubated in a 25° C. incubator for 24 h in the dark to induce the production of a large number of sporangiospores. Then the Petri dish was placed in a 4° C. refrigerator for 30 min and then incubated in a 25° C. incubator for 30 min, such that a large number of zoospores were released. 10 L of a sample was collected, and observed and counted with a hemocytometer under a microscope. The remaining sample was collected for later use.
Pepper seedlings at a 4-6 leaf stage were transplanted, with one plant in each pot. […] 3 replicates were set for each treatment, and 18 pots were adopted for each replicate. After the treatment, the observation was conducted regularly once a day. An incidence rate of pepper was recorded, and a disease index and a control efficiency were counted. […]

[9] = DTA/TG thermal analysis; assay type: physicochemical; settings: nitrogen, 10° C./min, 25° C. to 500° C.
Protocol: Test instrument: Shimadzu DTG-60 DTA-TG synchronous analyzer.
Test samples: Sodium iron chlorin and iron chlorin.
Reference: Aluminum oxide.
Heating rate: 10° C./min.
Heating range: 25° C. to 500° C.
Sample weight: 4.3 mg to 4.5 mg.
Analysis software: ta60WS Ver. 2.11.
Results were shown in FIG. 1, including a DTA comparison chart (the upper part in FIG. 1) and a TG comparison chart (the lower part in FIG. 1) for the samples.

With sodium iron chlorin [Example 21] the solubility in water [1] was “easily soluble”, the pH ([2]; 0.1 ppm in purified water) was “(6.79)” and the pH ([2]; 1.0 ppm in purified water) was “(6.89)”. The pH ([2]; 10.0 ppm in purified water) was “(7.23)”, the pH ([2]; 20.0 ppm in purified water) was “(7.42)” and the pH ([2]; 30.0 ppm in purified water) was “(7.51)”. The pH ([2]; 100.0 ppm in purified water) was “(8.34)”, the pH ([2]; 1000.0 ppm in purified water) was “(9.71)” and the pH ([2]; 10000.0 ppm in purified water) was “(10.41)”. The “Germination rate of wheat” value ([3]; 0.0025 ppm) was 94.0%, the Root length ([3]; 0.0025 ppm) was 9.30 cm and the Root number ([3]; 0.0025 ppm) was 5.3. The Root weight ([3]; 0.0025 ppm) was 0.0953 g, the Seedling height ([3]; 0.0025 ppm) was 8.88 cm and the Seedling weight ([3]; 0.0025 ppm) was 0.170 g. For the same substance, the “Germination rate of wheat” value ([3]; 0.0250 ppm) was 95.3%, the Root length ([3]; 0.0250 ppm) was 10.17 cm and the Root number ([3]; 0.0250 ppm) was 5.2. It also gave a Root weight ([3]; 0.0250 ppm) of 0.1027 g, a Seedling height ([3]; 0.0250 ppm) of 9.13 cm and a Seedling weight ([3]; 0.0250 ppm) of 0.178 g. For the same substance, the “Germination rate of wheat” value ([3]; 0.2500 ppm) was 93.3%, the Root length ([3]; 0.2500 ppm) was 9.64 cm and the Root number ([3]; 0.2500 ppm) was 4.9. The Root weight ([3]; 0.2500 ppm) was 0.0867 g, the Seedling height ([3]; 0.2500 ppm) was 7.95 cm and the Seedling weight ([3]; 0.2500 ppm) was 0.145 g. For the same substance, the “IC50 for chlorophyllase inhibition activity” value [4] was 5.22 ppm, the Corrected control [5] was 45.16% and the Disease index [5] was 21.61%. For the same substance, the Diseased plant rate [5] was 10.4%, the Average disease index [6] was 20.09% and the Average incidence rate [6] was 8.0%. For the same substance, the Corrected control effect [6] was 43.93%, the “Ear number per mu” value [7] was 22.40 10,000 and the “Filled grain number per ear” value [7] was 117.39. The Thousand-grain weight [7] was 26.9 g, the Yield [7] was 616.85 kg/mu and the Yield increase rate ([7]; versus water) was 7.1%. For the same substance, the Control effect [8] was 71.89%, the Disease index [8] was 24.36 and the “thermal stability compared with the acidic sample” value [9] was “significantly-stronger thermal stability”.
